Experimental data published in US11174252B2, “Heterocyclic compounds as kinase inhibitors” (priority 2018, dated 2021).
Where a name gives a salt, the structure may show the parent alone. Read-outs that look alike come from different tables or passages of the source.

Tests used:
FMS kinase = FMS kinase (Homo sapiens (Human), UniProt P07333); assay: LanthaScreen kinase assay (ATP, fluorescent-PolyGT substrate, TR-FRET); assay type: biochemical
MCF-7 = assay: Cancer cell proliferation assay, single agent; assay type: cell-based; settings: Homo sapiens
CDK4 = CDK4 (Homo sapiens (Human), UniProt P11802); assay: In vitro kinase inhibition, luminescence (ADP-Glo) with retinoblastoma substrate; assay type: biochemical
CDK6 = CDK6 (Homo sapiens (Human), UniProt Q00534); assay: biochemical; assay type: biochemical
[1] = MCF7, MCF-7 cells, treated for 24-168 hours, read-out: IC50 (nM) MCF-7
[2] = MCF7, read-out: IC50 (nM) MCF-7

CDK4, sequence (P11802 whole entry): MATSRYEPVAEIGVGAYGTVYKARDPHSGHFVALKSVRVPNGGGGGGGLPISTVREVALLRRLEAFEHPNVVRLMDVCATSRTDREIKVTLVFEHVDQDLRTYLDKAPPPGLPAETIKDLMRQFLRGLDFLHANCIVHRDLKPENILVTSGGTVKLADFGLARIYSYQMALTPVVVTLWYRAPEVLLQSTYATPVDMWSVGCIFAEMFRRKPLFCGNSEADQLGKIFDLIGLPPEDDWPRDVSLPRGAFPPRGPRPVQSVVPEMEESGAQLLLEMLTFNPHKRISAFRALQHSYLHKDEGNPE
CDK4, sequence (P24385 whole entry partner): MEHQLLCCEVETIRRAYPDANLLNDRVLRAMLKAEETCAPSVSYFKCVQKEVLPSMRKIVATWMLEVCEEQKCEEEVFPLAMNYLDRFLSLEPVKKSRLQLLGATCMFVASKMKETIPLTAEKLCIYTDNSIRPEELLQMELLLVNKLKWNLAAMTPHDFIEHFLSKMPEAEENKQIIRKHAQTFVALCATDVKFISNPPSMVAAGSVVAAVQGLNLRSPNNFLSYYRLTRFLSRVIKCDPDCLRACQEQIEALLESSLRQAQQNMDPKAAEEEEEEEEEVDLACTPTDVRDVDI
FMS kinase, sequence (P07333 20-972): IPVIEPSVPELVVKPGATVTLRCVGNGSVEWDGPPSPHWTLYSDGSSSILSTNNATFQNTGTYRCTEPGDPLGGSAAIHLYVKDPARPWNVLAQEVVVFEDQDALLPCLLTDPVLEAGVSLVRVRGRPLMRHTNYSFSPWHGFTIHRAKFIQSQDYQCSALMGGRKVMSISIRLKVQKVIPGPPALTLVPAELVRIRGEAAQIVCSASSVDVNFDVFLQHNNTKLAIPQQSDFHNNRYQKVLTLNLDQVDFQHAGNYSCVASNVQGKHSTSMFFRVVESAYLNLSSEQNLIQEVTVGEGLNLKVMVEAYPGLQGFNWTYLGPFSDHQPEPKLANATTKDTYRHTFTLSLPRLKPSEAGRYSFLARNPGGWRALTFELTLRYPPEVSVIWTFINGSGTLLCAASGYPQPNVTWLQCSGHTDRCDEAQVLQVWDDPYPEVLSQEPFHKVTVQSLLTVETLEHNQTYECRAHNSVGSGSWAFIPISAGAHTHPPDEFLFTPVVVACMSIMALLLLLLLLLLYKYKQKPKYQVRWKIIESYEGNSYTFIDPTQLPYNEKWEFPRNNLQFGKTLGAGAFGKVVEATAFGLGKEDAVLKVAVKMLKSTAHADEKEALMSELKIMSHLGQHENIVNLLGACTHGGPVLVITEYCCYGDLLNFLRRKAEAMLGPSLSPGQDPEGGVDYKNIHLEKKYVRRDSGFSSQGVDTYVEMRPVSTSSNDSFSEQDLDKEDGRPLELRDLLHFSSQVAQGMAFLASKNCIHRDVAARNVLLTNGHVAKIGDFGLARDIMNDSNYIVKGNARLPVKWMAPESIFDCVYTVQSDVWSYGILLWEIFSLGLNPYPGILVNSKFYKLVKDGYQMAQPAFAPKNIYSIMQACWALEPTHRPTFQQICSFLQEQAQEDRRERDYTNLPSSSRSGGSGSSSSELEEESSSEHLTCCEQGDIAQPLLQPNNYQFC

| SMILES | IC50 (FMS kinase) | IC50 (MCF-7; [1]) | IC50 (MCF-7; [2]) | IC50 (CDK4) | IC50 (CDK6) |
| --- | --- | --- | --- | --- | --- |
| CC(C)N1CCc2c(cccc2Nc2ncc(F)c(-c3cc(F)c4c(c3)N(C(C)C)CCO4)n2)C1 [Compound 20, N-(5-fluoro-4-(8-fluoro-4-isopropyl-3,4-dihydro-2H-benzo[b][1,4]oxazin-6-yl)pyrimidin-2-yl)-2-isopropyl-, 2,3,4-tetrahydroisoquinolin-5-amine] | 17 nM | 145 nM |  |  |  |
| CC(C)N1CCOc2c(F)cc(-c3nc(Nc4ccc(C5CCNCC5)c(F)c4)ncc3F)cc21 [Compound 18, 5-fluoro-N-(3-fluoro-4-(piperidin-4-yl)phenyl)-4-(8-fluoro-4-isopropyl-3,4-dihydro-2H-benzo[b][1,4]oxazin-6-yl) pyrimidin-2-amine] | 19 nM |  | < 10 nM |  |  |
| CC(C)N1CCN(c2ccc(Nc3ncc(F)c(-c4cc(F)c5c(c4)N(C(C)C)CCO5)n3)cc2F)CC1 [Compound 17, 5-fluoro-N-(3-fluoro-4-(4-isopropylpiperazin-1-yl)phenyl)-4-(8-fluoro-4-isopropyl-3,4-dihydro-2H-benzo[b][1,4]oxazin-6-yl)pyrimidin-2-amine] | 21 nM |  | 15 nM | 8 nM |  |
| CC(C)N1CCOc2c(F)cc(-c3nc(Nc4ccc(C5CCN(C)CC5)c(C#N)n4)ncc3F)cc21 [Compound 845, 6-((5-fluoro-4-(8-fluoro-4-isopropyl-3,4-dihydro-2H-benzo[b][1,4]oxazin-6-yl)pyrimidin-2-yl)amino)-3-(1-methylpiperidin-4-yl)picolinonitrile] |  |  |  | 23 nM | 29 nM |
| CC(C)N1CCOc2c(F)cc(-c3nc(Nc4ccn(C5=CCNCC5)c(=O)c4)ncc3F)cc21 [Compound 39, 4-((5-fluoro-4-(8-fluoro-4-isopropyl-3,4-dihydro-2H-benzo[b][1,4]oxazin-6-yl)pyrimidin-2-yl)amino)-1′,2′,3′,6′-tetrahydro-2H-[1,4′-bipyridin]-2-one] | 33 nM | 45 nM |  |  |  |
| CC(C)N1CCOc2c(F)cc(-c3nc(Nc4ccc(C5CCN(C)CC5)c(F)n4)ncc3F)cc21 [Compound 846, 5-fluoro-4-(8-fluoro-4-isopropyl-3,4-dihydro-2H-benzo[b][1,4]oxazin-6-yl)-N-(6-fluoro-5-(1-methylpiperidin-4-yl)pyridin-2-yl)pyrimidin-2-amine] |  |  |  | 3 nM | 4 nM |
| COc1nc(Nc2ncc(F)c(-c3cc(F)c4c(c3)N(C(C)C)CCO4)n2)ccc1C1CCN(C)CC1 [Compound 844, 5-fluoro-4-(8-fluoro-4-isopropyl-3,4-dihydro-2H-benzo[b][1,4]oxazin-6-yl)-N-(6-methoxy-5-(1-methylpiperidin-4-yl)pyridin-2-yl)pyrimidin-2-amine] |  |  |  | 31 nM | 35 nM |
| CC(C)N1CCOc2c(F)cc(-c3nc(Nc4ccc(N5CCN(C)CC5)cc4)ncc3F)cc21 [Compound 6, 5-fluoro-4-(8-fluoro-4-isopropyl-3,4-dihydro-2H-benzo[b][1,4]oxazin-6-yl)-N-(4-(4-methylpiperazin-1-yl)phenyl)pyrimidin-2-amine] | 82 nM | 30 nM |  |  |  |
| CC(C)N1CCOc2c(F)cc(-c3nc(Nc4cc(N5CCNCC5)ccn4)ncc3F)cc21 [Compound 5, 5-fluoro-4-(8-fluoro-4-isopropyl-3,4-dihydro-2H-benzo[b][1,4]oxazin-6-yl)-N-(4-(piperazin-1-yl)pyridin-2-yl)pyrimidin-2-amine] | > 3630 nM |  |  |  |  |
| CC(C)N1CCOc2c(F)cc(-c3nc(Nc4ccc5c(c4)CCNC5)ncc3F)cc21 [Compound 13, N-(5-fluoro-4-(8-fluoro-4-isopropyl-3,4-dihydro-2H-benzo[b][1,4]oxazin-6-yl)pyrimidin-2-yl)-1,2,3,4-tetrahydroisoquinolin-6-amine] |  |  | 3.8 nM |  |  |
| CC(C)N1CCOc2c(F)cc(-c3nc(Nc4cc(F)c(N5CCNCC5)cc4F)ncc3F)cc21 [Compound 31, N-(2,5-difluoro-4-(piperazin-1-yl)phenyl)-5-fluoro-4-(8-fluoro-4-isopropyl-3,4-dihydro-2H-benzo[b][1,4]oxazin-6-yl)pyrimidin-2-amine] | 49 nM |  | 193 nM |  |  |
| CCN1CCN(Cc2ccc(Nc3ncc(F)c(-c4cc(F)c5c(c4)N(C(=O)C4CC4)CCO5)n3)nc2)CC1 [Compound 8, cyclopropyl(6-(2-((5-((4-ethylpiperazin-1-yl)methyl)pyridin-2-yl)amino)-5-fluoropyrimidin-4-yl)-8-fluoro-2,3-dihydro-4H-benzo[b][1,4]oxazin-4-yl)methanone] | > 5000 nM |  |  |  |  |
| CC(C)N1CCOc2c(F)cc(-c3nc(Nc4ccc(N5CCN(C)CC5)c(F)c4)ncc3F)cc21 [Compound 14, 5-fluoro-N-(3-fluoro-4-(4-methylpiperazin-1-yl)phenyl)-4-(8-fluoro-4-isopropyl-3,4-dihydro-2H-benzo[b][1,4]oxazin-6-yl) pyrimidin-2-amine] | 49 nM |  | 11 nM |  |  |
| CC(C)N1CCOc2c(F)cc(-c3nc(Nc4ccc5c(c4)CC(N(C)C)C5)ncc3F)cc21 (stereo not shown) [Compound 37, N^5-(5-fluoro-4-(8-fluoro-4-isopropyl-3,4-dihydro-2H-benzo[b][1,4]oxazin-6-yl)pyrimidin-2-yl)-N^2,N^2-dimethyl-2,3-dihydro-1H-indene-2,5-diamine] |  |  | < 14 nM |  |  |
| CC(C)N1CCc2cc(Nc3ncc(F)c(-c4cc(F)c5c(c4)N(C(C)C)CCO5)n3)ccc2C1 [Compound 22, N-(5-fluoro-4-(8-fluoro-4-isopropyl-3,4-dihydro-2H-benzo[b][1,4]oxazin-6-yl)pyrimidin-2-yl)-2-isopropyl-1,2,3,4-tetrahydroisoquinolin-6-amine] | 6.5 nM | < 10 nM |  |  |  |
| CC(C)N1CCOc2c(F)cc(-c3nc(Nc4cccc5c4CCNC5)ncc3F)cc21 [Compound 15, N-(5-fluoro-4-(8-fluoro-4-isopropyl-3,4-dihydro-2H-benzo[b][1,4]oxazin-6-yl)pyrimidin-2-yl)-1,2,3,4-tetrahydroisoquinolin-5-amine] | 22 nM |  | 114 nM |  |  |
| CC(C)N1CCOc2c(F)cc(-c3nc(Nc4ccc5c(c4)CNCC5)ncc3F)cc21 [Compound 16, N-(5-fluoro-4-(8-fluoro-4-isopropyl-3,4-dihydro-2H-benzo[b][1,4]oxazin-6-yl)pyrimidin-2-yl)-1,2,3,4-tetrahydroisoquinolin-7-amine] | 2.5 nM |  | 3.8 nM |  |  |
| CC(C)N1CCc2ccc(Nc3ncc(F)c(-c4cc(F)c5c(c4)N(C(C)C)CCO5)n3)cc2C1 [Compound 19, N-(5-fluoro-4-(8-fluoro-4-isopropyl-3,4-dihydro-2H-benzo[b][1,4]oxazin-6-yl)pyrimidin-2-yl)-2-isopropyl-1,2,3,4-tetrahydroisoquinolin-7-amine] | 3 nM | < 10 nM |  |  |  |
| CC(C)N1CCOc2c(F)cc(-c3nc(Nc4ccc(N5CCNCC5)cc4F)ncc3F)cc21 [Compound 11, 5-fluoro-N-(2-fluoro-4-(piperazin-1-yl)phenyl)-4-(8-fluoro-4-isopropyl-3,4-dihydro-2H-benzo[b][1,4]oxazin-6-yl)pyrimidin-2-amine] | 250 nM |  | 225 nM |  |  |
| COC1CCN(c2ccc(Nc3ncc(F)c(-c4cc(F)c5c(c4)N(C(C)C)CCO5)n3)nc2)CC1 [Compound 843, 5-fluoro-4-(8-fluoro-4-isopropyl-3,4-dihydro-2H-benzo[b][1,4]oxazin-6-yl)-N-(5-(4-methoxypiperidin-1-yl)pyridin-2-yl)pyrimidin-2-amine hydrochloride] |  |  |  | 65 nM | 24 nM |
| CC(C)N1CCOc2c(F)cc(-c3nc(Nc4ccc(N5CCC(N(C)C)CC5)c(C(F)(F)F)c4)ncc3F)cc21 [Compound 178, N-(4-(4-(dimethylamino)piperidin-1-yl)-3-(trifluoromethyl)phenyl)-5-fluoro-4-(8-fluoro-4-isopropyl-3,4-dihydro-2H-benzo[b][1,4]oxazin-6-yl)pyrimidin-2-amine] | 5 nM | 210 nM |  |  |  |
| CCCc1nc(Nc2ncc(F)c(-c3cc(F)c4c(c3)N(C(C)C)CCO4)n2)ccc1C1CCN(C)CC1 [Compound 848, 5-fluoro-4-(8-fluoro-4-isopropyl-3,4-dihydro-2H-benzo[b][1,4]oxazin-6-yl)-N-(5-(1-methylpiperidin-4-yl)-6-propylpyridin-2-yl)pyrimidin-2-amine] |  |  |  | 44 nM | 110 nM |
| COc1cc(Nc2ncc(F)c(-c3cc(F)c4c(c3)N(C(C)C)CCO4)n2)ccc1N1CCNCC1 [Compound 29, 5-fluoro-4-(8-fluoro-4-isopropyl-3,4-dihydro-2H-benzo[b][1,4]oxazin-6-yl)-N-(3-methoxy-4-(piperazin-1-yl)phenyl)pyrimidin-2-amine] | 2.5 nM |  | 48 nM |  |  |
| CC(C)N1CCOc2c(F)cc(-c3nc(Nc4ccc(C5CCN(C)CC5)c(C5CC5)n4)ncc3F)cc21 [Compound 847, N-(6-cyclopropyl-5-(1-methylpiperidin-4-yl)pyridin-2-yl)-5-fluoro-4-(8-fluoro-4-isopropyl-3,4-dihydro-2H-benzo[b][1,4]oxazin-6-yl)pyrimidin-2-amine] |  |  |  | 44 nM | 107 nM |
| CC(C)N1CCOc2c(F)cc(-c3nc(Nc4ccc(N5CCNCC5)c(C#N)c4)ncc3F)cc21 [Compound 21, 5-((5-fluoro-4-(8-fluoro-4-isopropyl-3,4-dihydro-2H-benzo[b][1,4]oxazin-6-yl)pyrimidin-2-yl)amino)-2-(piperazin-1-yl) benzonitrile] | 163 nM |  | < 10 nM |  |  |
| CC(C)N1CCOc2c(F)cc(-c3nc(Nc4ccc(N5CCNCC5)c(F)c4F)ncc3F)cc21 [Compound 28, N-(2,3-difluoro-4-(piperazin-1-yl)phenyl)-5-fluoro-4-(8-fluoro-4-isopropyl-3,4-dihydro-2H-benzo[b][1,4]oxazin-6-yl)pyrimidin-2-amine] | 123 nM |  | 150 nM |  |  |
